# Reference: patent US11987835B2, “Amino acid-sensing diguanylate cyclase and methods of use” (priority 2019, dated 2024)
# Tests used:
# Aer01 [1] = type: cell-based, Aeromonas veronii
# Protocol: Live imaging and quantification of Aer01 motility. […] EM containing proline or valine (pH adjusted to 7.8 with HCl/NaOH) was added to the wells to generate the desired final concentrations of amino acid (0, 1 nM, 10 nM, 100 nM, 1 μM, or 1 mM) and cell densities of OD 0.1, each performed in triplicate. The tray was covered by parafilm and incubated at 30° C. for 5 hours. Cells were imaged between hour 5-6. Prior to imaging, bacterial samples were moved to a temperature-controlled box housing the microscope, heated to 30° C. 2 ul of bacteria from treatments were applied to a well slide (MP Biomedicals 10-well multitest slides #096041805), covered with a coverslip, and imaged immediately. Videos of bacteria were captured using a Nikon Eclipse Ti inverted microscope on the GFP channel using 20× magnification at 39 frames per second. Videos of treated bacteria were analyzed with particle tracking software (Parthasarathy, Nature Methods 9:724-236, 2012) using these settings: “objects” were identified using bpfilter 3, nsize 7, and gradobjsize 0. A standard threshold of 3.99-6 was applied, depending on the degree of background. Motile bacteria were defined as objects tracked over at least 1 s (39 frames) with a standard deviation in position of pixels/frame of at least 1.
# To do this, Aer01 was incubated in medium+/−ligand (ranging between 0 and 1 mM) then wet-mounted and imaged on an inverted microscope.
# [2] = system: Aer01 colonization of larval zebrafish gut; experiment: Bacterial competitions in vivo (competitive index); conditions: GF zebrafish, ligand supplemented into inoculum and flask medium (1 mM proline)
# Protocol: Bacterial competitions in vivo. For in vivo bacterial competitions, strains (purified evolved isolates, or Aer01 genetic variants) were grown overnight in TSB from freezer stocks. 1 ml of the overnight cultures were pelleted (8,700 rcf, 2 min), then resuspended in 1 ml sterile EM. Competing strains were mixed, then added to flasks of 4 dpf GF (or CV fish) WT fish at ˜10^6 CFU/ml. For all competitions, sfGFP-tagged Aer01 was used as the “reference” strain. […] At 7 dpf, fish intestines were dissected as described above, and each intestine transferred into a 1.6 ml tube containing 500 μl sterile EM and ˜100 μl bullet beads, then bullet blended as described above. Homogenized samples were diluted appropriately in sterile EM, spread plated on TSA plates, incubated at 30° C. for 1-2 days, and the colonies counted. Strains were differentiated by fluorescence microscopy. Competitive index (CI) was calculated by dividing the strain ratio (test strain divided by reference strain) in the gut at the end of the competition by the strain ratio in the inoculum ((test/reference)gut/(test/reference)inoculum) (FIG. 1). The limit of detection is 5 CFU/gut; for samples were one strain was below the limit of detection, the abundance was set to 5 CFU in order to calculate a CI; this was the case for few of the samples.
# To test whether WT motility, and therefore immigration into the host, could be increased with addition of ligands, competitions were performed as previously described, this time supplementing the inoculum and flask medium with SpdE ligand.
# [3] = system: Aer01 immigration into GF zebrafish; experiment: Migration rate experiments; type: in vivo; conditions: WT +/- valine
# Protocol: Migration rate experiments. Strains were grown, shaking, overnight in TSB, at 30° C. Overnight cultures were pelleted and washed in sterile EM, then diluted to 1:100 in sterile EM, and incubated at room temperature for ˜2 hrs. If amino acid SpdE ligands were tested, amino acids were added to the prepared inoculum and fish flasks before the 2 hr incubation. GF zebrafish (5 or 6 dpf) inoculated with the cultures to yield ˜10^5 CFU/ml. The fish were then split into replicate flasks containing 10 fish and 10 ml inoculated flask EM. An EM sample was taken and plated immediately to quantify CFU/ml of the inoculating strain. […] After 24-48 hr incubation, colonies on plates were counted.
# To more directly investigate differences in immigration rate, migration rate experiments were performed. Fish were mono-associated (inoculated with individual strains) via the EM, then 10 fish were dissected every 60 minutes, and the fraction of fish colonized at each time point was calculated (FIG. 3). […] This experiment assessed the ability of Aer01 variants to migrate into GF fish from the environment during initial colonization. […] After allowing 15 hrs for Aer01 to migrate from donor to recipient fish, the fish were dissected and determined the abundance of Aer01 in all fish within each flask (FIG. 6D).
# Aer01 [4] = type: cell-based, Aeromonas veronii; conditions: WT Aer01, 1 mM ligand versus WT without ligand, mean
# Protocol: Exploration Assay. Overnight cultures (TSB) of Aer01 Strains were pelleted (1 mL), and resuspended in 1 ml sterile EM. […] The cultures were incubated, shaking, at 30° C. for 3 hours. An aliquot of each culture was passed through a 0.2 μM filter (Corning® Costar® Spin-X® centrifuge tube filters) to generate cell-free supernatant. To a sterile 96-well plate round-bottom plate, 80 μL of unfiltered culture was added to each well to include five replicates for each condition. To another sterile 96-well plate round-bottom plate, 80 μL of the cell-free supernatant was added to each well to replicate the layout of the culture plate. Using a Rainin Liquidator™ 96-channel benchtop pipettor, 5 μL of the cell-free supernatant was pulled up into 20 μL Rainin pipette tips. These tips then were lowered down into the wells of the culture plate so the tips were submerged to half the depth of the culture volume in the wells. This set-up was incubated at room temperature for 30 min, during which time the cells in the culture can swim up into the supernatant in the pipette tips. After incubation, the contents of the tips were ejected into the wells of a sterile 96-well plate (Corning, flat-bottom, #3595) to which 195 μL of sterile TSB medium was added to each well. This plate was immediately placed in a FLUOstar Omega microplate reader (BMG Labtech, Offenburg, Germany) and growth curves monitored by measuring absorbance (600 nm) every 10 min for 12-16 hrs, with 30° C. incubation and constant shaking. The growth curves were plotted and the times at which the absorbance passed 0.5 was determined for each plot. The time difference between a particular condition and a reference condition (as indicated in FIG. 5C) represents the “exploration response” of Aer01 in that condition.
# An “exploration assay” was used to measure population-level motility. For this assay Aer01 was incubated in the presence/absence of amino acid ligand (1 mM) for˜4 hrs, then the culture was added to the wells of a 96-well plate and pipette tips filled with the cell-free supernatant of the same cultures was lowered into the wells (FIG. 13). During a 30 min incubation period the Aer01 cells in the wells swam up into the pipette tips. […] To quantify the number of cells in the pipette tips after the 30 min exploration time, the contents of the pipette tips were ejected into the wells of a 96-well plate containing rich media and growth curves were monitored. […] This time difference between conditions, “exploration response,” was calculated to compare across many strains and conditions (FIG. 12C).
# Aer01 [5] = experiment: Biofilm assay (crystal violet); type: cell-based, Aeromonas veronii; conditions: WT Aer01, 1 mM ligand, 48 hrs
# Protocol: Biofilm Assay. […] To the wells of a sterile 96-well plate (Corning, flat-bottom, #3595), 150 μL of each resuspended culture was added, in triplicate. A blank control well was added for each condition using the appropriate uninoculated media. This plate was incubated at 30° C., stationary, for 48 hours. After incubation, the biofilms were quantified using a standard crystal violet biofilm staining procedure. […] Briefly, the supernatant was removed from each well, then the wells gently rinsed three times with 150 μL sterile EM. Then, 150 μL 0.1% crystal violet was added to each well and the plate was incubated at room temperature for 10 minutes, followed by five rinses with 150 μL sterile EM. To destain, 150 μL 95% ethanol was added to each well and the plate was incubated at room temperature for 10 minutes. Each well was mixed well and the contents transferred to a clean 96-well plate and the absorbance (570 nm) was read on a FLUOstar Omega microplate reader (BMG Labtech, Offenburg, Germany).
# [6] = system: SpdE diguanylate cyclase activity in Aer01; experiment: Intracellular cyclic di-GMP quantification; type: cell-based, Aeromonas veronii; conditions: WT Aer01, 1 mM amino acid, ~4 hrs, versus no ligand
# Protocol: Intracellular cyclic di-GMP quantification. […] Cultures were incubated, shaking, at 30° C. for 4 hours. Sample OD600 was measured and the entire volume pelleted. Sample pellets were resuspended in 300 μL ice cold extraction buffer (40/40/20 acetonitrile/methanol/water+0.1 N formic acid), iced for 30 min, then pelleted at maximum speed in tabletop microcentrifuge for 10 min. The supernatant was transferred to a new tube and stored at −80° until being vacuum concentrated until completely evaporated.
# Dried samples were resuspended in 100 μL Ultra Performance liquid chromatography-grade water and centrifuged for two minutes at 18,000×g (Eppendorf® Centrifuge 5242R). The debris-free supernatants were moved to LCMS Certified Clear Glass 12×32 mm screw neck max recovery vials (Waters®). Ten microliters of each sample were analyzed using LC-MS/MS on a Quattro Premier XE mass spectrometer coupled with an Acquity Ultra Performance LC system (Waters®). Cyclic di-GMP was detected with electrospray ionization using multiple reaction monitoring in negative-ion mode at m/z 689.16→344.31. […]
# In the case of SpdE, ligand binding to the PAS/Cache was hypothesized to regulate SpdE diguanylate cyclase activity, thereby altering intracellular levels of c-di-GMP. To test this, WT and ΔspdE Aer01 were incubated in the presence or absence of amino acid ligands for ˜4 hrs, then pelleted and lysed the cells to extract and quantify intracellular c-di-GMP.
# [7] = system: Aer01 SpdE tandem PAS/dCache region (residues 37-287); experiment: Thermofluor (thermal shift) assay, Aer01 SpdE; type: binding, Aeromonas veronii; conditions: 10 mM pure amino acid, replicate ΔTm data
# Protocol: Thermofluor Assay. The periplasmic portion of SpdE was cloned, expressed and purified in E. coli. Thermofluor assays were performed using a Thermo Fisher Scientific StepOnePlus Real-time PCR instrument. Each 20 μL sample contained 0.1 mg/mL SpdE protein, 4× SYPRO Orange dye, 165 mM NaCl, 80 mM Tris pH 7.5 and 10 mM ligand (free amino acid dissolved in water). All samples were done in triplicate and repeated 2-3 times on different days. All reagents and steps were performed at 4° C. and placed in 96 well PCR plates. The PCR plate was slowly heated (˜0.03° C./sec) from 4° C. to 80° C. in the StepOnePlus instrument and fluorescent measurements were taken every 8.5 sec. The resultant thermal shift curves were analyzed to find the inflexion points, which correspond to the melting temperature (Tm) of the protein (with or without ligand). Inflexion points were determined in Microsoft Excel by calculating the half way point between the minimum fluorescence value prior to fluorescence increase and the maximum fluorescence value. The Tm difference between protein with and without ligand was calculated and plotted to determine the thermal stability shift as a proxy for ligand binding.
# In order to identify SpdE ligands, a thermal shift assay was conducted using 96-well Biolog Phenotype MicroArray plates as a high-throughput approach to screen compounds for ligand candidates. Using heterologously expressed and purified tandem PAS/dCache region of the protein (residues 37-287), ˜200 compounds were screened for ones that conferred a significant shift in protein thermal stability (see Table 4). […] For each curve, the melting temperature (Tm) was determined (brown circles), which corresponds to the midpoint of protein unfolding. The ΔTm (difference between test Tm and water control Tm) was calculated for each amino acid condition.
structure (smiles),measurement,setting,value
CC(C)[C@H](N)C(=O)O [valine],number of motile cells,"Aer01 [1]; WT Aer01, 1 μM and 1 mM ligand",striking increase
same,motility,"Aer01 [1]; WT Aer01, below 1 μM ligand",little increase
same,median CI (competitive index) of ΔspdE versus WT,[2],7
same,immigration rate of WT Aer01 into fish,[3],migrated into the fish faster
same,exploration response,Aer01 [4],13.2 min
same,biofilm formation,Aer01 [5],more robust biofilms in the absence of ligand
same,intracellular c-di-GMP,[6],significantly lower
same,thermal shift (ΔTm) in words,[7],largest shifts
